Data: patent publication US20070254910A1, “CHEMICAL COMPOUNDS” (priority 2004, published 2007)
pIC50: −log10 of the molar value.

What follows are molecules tested on HIV (assay: HOS HIV anti-infectivity assay (strain not stated)). Details: Human immunodeficiency virus 1, HOS HIV anti-infectivity assay; read-out: Activity Level.
Assay type: cell-based
Protocol: Compounds were profiled against two HIV-1 viruses, the M-tropic (CCR5 utilizing) Ba-L strain and the T-tropic (CXCR4 utilizing) IIIB strain. Both viruses were propagated in human peripheral blood lymphocytes. Compounds were tested for there ability to block infection of the HOS cell line (expressing hCXCR4/hCCR5/hCD4/pHIV-LTR-luciferase) by either HIV-1 Ba-L or HIV-1 IIIB. Compound cytotoxicity was also examined in the absence of virus addition.
HOS cells (expressing hCXCR4/hCCR5/hCD4/pHIV-LTR-luciferase) were harvested and diluted in Dulbeccos modified Eagles media supplemented with 2% FCS and non-essential amino acid to a concentration of 60,000 cells/ml. The cells were plated into 96-well plates (100 ul per well) and the plates were placed in a tissue culture incubator (37° C.; 5% CO2/95% air) for a period of 24 h.
Subsequently, 50 ul of the desired drug solution (4 times the final concentration) was added to each well and the plates were returned to the tissue culture incubator (37° C.; 5% CO2/95% air) for 1 h. Following this incubation 50 ul of diluted virus was added to each well (approximately 2 million RLU per well of virus). The plates were returned to the tissue culture incubator (37° C.; 5% CO2/95% air) and were incubated for a further 96 h.
Following this incubation the endpoint for the virally infected cultures was quantified following addition of Steady-Glo Luciferase assay system reagent (Promega, Madison, Wis.). Cell viability or non-infected cultures was measured using a CellTiter-Glo luminescent cell viability assay system (Promega, Madison, Wis.). All luminescent readouts are performed on a Topcount luminescence detector (Packard, Meridien, Conn.).

pIC50 | Compound
> 7.00 | CN1CCN(c2cccc3nc(CN(C)C4CCCc5cccnc54)c(CO)n23)CC1 (stereo not drawn) [Example 20, (5-(4-Methyl-1-piperazinyl)-2-{[methyl(5,6,7,8-tetrahydro-8-quinolinyl)amino]methyl}imidazo[1,2-a]pyridin-3-yl)methanol]
> 7.00 | COc1ccc([C@H](C)N(Cc2nc3cccc(N4CCN(C)CC4)n3c2CO)[C@H]2CCCc3cccnc32)cc1 [Example 22, [2-({{(1S)-1-[4-(Methyloxy)phenyl]ethyl}[(8S)-5,6,7,8-tetrahydro-8-quinolinyl]amino}methyl)-5-(4-methyl-1-piperazinyl)imidazo[1,2-a]pyridin-3-yl]methanol]
> 7.00 | CN1CCN(c2cccc3nc(CN(C)[C@H]4CCCc5cccnc54)c(CO)n23)CC1 [Example 25, [5-(4-Methyl-1-piperazinyl)-2-({methyl[(8S)-5,6,7,8-tetrahydro-8-quinolinyl]amino}methyl)imidazo[1,2-a]pyridin-3-yl]methanol]
> 7.00 | CN(C)CCN(C)c1cccc2nc(CN(C)[C@H]3CCCc4cccnc43)c(CO)n12 [Example 28, [5-[[2-(Dimethylamino)ethyl](methyl)amino]-2-({methyl[(8S)-5,6,7,8-tetrahydro-8-quinolinyl]amino}methyl)imidazo[1,2-a]pyridin-3-yl]methanol]
> 7.00 | CN1CCN(c2cccc3nc(CN(C)C4CCCCc5cccnc54)c(CO)n23)CC1 (stereo not drawn) [Example 30, (5-(4-Methyl-1-piperazinyl)-2-{[methyl(6,7,8,9-tetrahydro-5H-cyclohepta[b]pyridin-9-yl)amino]methyl}imidazo[1,2-a]pyridin-3-yl)methanol]
> 7.00 | CCN(Cc1nc2cccc(N3CCN(C)CC3)n2c1CO)[C@H]1CCCc2cccnc21 [Example 32, [2-({Ethyl[(8S)-5,6,7,8-tetrahydro-8-quinolinyl]amino}methyl)-5-(4-methyl-1-piperazinyl)imidazo[1,2-a]pyridin-3-yl]methanol]
> 7.00 | CC(C)N(Cc1nc2cccc(N3CCN(C)CC3)n2c1CO)[C@H]1CCCc2cccnc21 [Example 34, [2-({(1-Methylethyl)[(8S)-5,6,7,8-tetrahydro-8-quinolinyl]amino}methyl)-5-(4-methyl-1-piperazinyl)imidazo[1,2-a]pyridin-3-yl]methanol]
> 7.00 | CCCN(Cc1nc2cccc(N3CCN(C)CC3)n2c1CO)[C@H]1CCCc2cccnc21 [Example 36, [5-(4-Methyl-1-piperazinyl)-2-({propyl[(8S)-5,6,7,8-tetrahydro-8-quinolinyl]amino}methyl)imidazo[1,2-a]pyridin-3-yl]methanol]
> 7.00 | CN1CCN(c2cccc3nc(CN(CC4CC4)[C@H]4CCCc5cccnc54)c(CO)n23)CC1 [Example 38, [2-({(Cyclopropylmethyl)[(8S)-5,6,7,8-tetrahydro-8-quinolinyl]amino}methyl)-5-(4-methyl-1-piperazinyl)imidazo[1,2-a]pyridin-3-yl]methanol]
> 7.00 | CN1CCN(c2cccc3nc(CN(Cc4ccccc4)[C@H]4CCCc5cccnc54)c(CO)n23)CC1 [Example 40, [5-(4-Methyl-1-piperazinyl)-2-({(phenylmethyl)[(8S)-5,6,7,8-tetrahydro-8-quinolinyl]amino}methyl)imidazo[1,2-a]pyridin-3-yl]methanol]
> 7.00 | CN1CCN(c2cccc3nc(CN(Cc4ccc(C(F)(F)F)cc4)[C@H]4CCCc5cccnc54)c(CO)n23)CC1 [Example 42, {5-(4-Methyl-1-piperazinyl)-2-[((8S)-5,6,7,8-tetrahydro-8-quinolinyl{[4-(trifluoromethyl)phenyl]methyl}amino)methyl]imidazo[1,2-a]pyridin-3-yl}methanol]
> 7.00 | CN(Cc1nc2cccc(N3CCN4CCCC4C3)n2c1CO)[C@H]1CCCc2cccnc21 (stereo partly drawn) [Example 44, [5-(Hexahydropyrrolo[1,2-a]pyrazin-2(1H)-yl)-2-({methyl[(8S)-5,6,7,8-tetrahydro-8-quinolinyl]amino}methyl)imidazo[1,2-a]pyridin-3-yl]methanol]
> 7.00 | CN(C)[C@@H]1CCN(c2cccc3nc(CN(C)[C@H]4CCCc5cccnc54)c(CO)n23)C1 [Example 46, [5-[(3R)-3-(Dimethylamino)-1-pyrrolidinyl]-2-({methyl[(8S)-5,6,7,8-tetrahydro-8-quinolinyl]amino}methyl)imidazo[1,2-a]pyridin-3-yl]methanol]
> 7.00 | CN(Cc1nc2cccc(N3CCCNCC3)n2c1CO)[C@H]1CCCc2cccnc21 [Example 48, [5-(Hexahydro-1H-1,4-diazepin-1-yl)-2-({methyl[(8S)-5,6,7,8-tetrahydro-8-quinolinyl]amino}methyl)imidazo[1,2-a]pyridin-3-yl]methanol]
> 7.00 | CN1CCCN(c2cccc3nc(CN(C)[C@H]4CCCc5cccnc54)c(CO)n23)CC1 [Example 50, [5-(4-Methylhexahydro-1H-1,4-diazepin-1-yl)-2-({methyl[(8S)-5,6,7,8-tetrahydro-8-quinolinyl]amino}methyl)imidazo[1,2-a]pyridin-3-yl]methanol]
> 7.00 | CN1CCC(N(C)c2cccc3nc(CN(C)[C@H]4CCCc5cccnc54)c(CO)n23)C1 (stereo partly drawn) [Example 52, [5-[Methyl(1-methyl-3-pyrrolidinyl)amino]-2-({methyl[(8S)-5,6,7,8-tetrahydro-8-quinolinyl]amino}methyl)imidazo[1,2-a]pyridin-3-yl]methanol]
> 7.00 | CCN1CCN(c2cccc3nc(CN(C)[C@H]4CCCc5cccnc54)c(CO)n23)CC1 [Example 54, [5-(4-Ethyl-1-piperazinyl)-2-({methyl[(8S)-5,6,7,8-tetrahydro-8-quinolinyl]amino}methyl)imidazo[1,2-a]pyridin-3-yl]methanol]
> 7.00 | CC(C)N1CCN(c2cccc3nc(CN(C)[C@H]4CCCc5cccnc54)c(CO)n23)CC1 [Example 56, [5-[4-(1-Methylethyl)-1-piperazinyl]-2-({methyl[(8S)-5,6,7,8-tetrahydro-8-quinolinyl]amino}methyl)imidazo[1,2-a]pyridin-3-yl]methanol]
> 7.00 | CN(C)[C@H]1CCN(c2cccc3nc(CN(C)[C@H]4CCCc5cccnc54)c(CO)n23)C1 [Example 58, [5-[(3S)-3-(Dimethylamino)-1-pyrrolidinyl]-2-({methyl[(8S)-5,6,7,8-tetrahydro-8-quinolinyl]amino}methyl)imidazo[1,2-a]pyridin-3-yl]methanol]
> 7.00 | CN(Cc1nc2cccc(N3CC[C@@H](N)C3)n2c1CO)[C@H]1CCCc2cccnc21 [Example 60, [5-[(3R)-3-Amino-1-pyrrolidinyl]-2-({methyl[(8S)-5,6,7,8-tetrahydro-8-quinolinyl]amino}methyl)imidazo[1,2-a]pyridin-3-yl]methanol]
> 7.00 | CN[C@@H]1CCN(c2cccc3nc(CN(C)[C@H]4CCCc5cccnc54)c(CO)n23)C1 [Example 63, [5-[(3R)-3-(Methylamino)-1-pyrrolidinyl]-2-({methyl[(8S)-5,6,7,8-tetrahydro-8-quinolinyl]amino}methyl)imidazo[1,2-a]pyridin-3-yl]methanol]
> 7.00 | CCN(Cc1nc2cccc(N3CC[C@@H](N(C)C)C3)n2c1CO)[C@H]1CCCc2cccnc21 [Example 66, [5-[(3R)-3-(Dimethylamino)-1-pyrrolidinyl]-2-({ethyl[(8S)-5,6,7,8-tetrahydro-8-quinolinyl]amino}methyl)imidazo[1,2-a]pyridin-3-yl]methanol]
> 7.00 | CCCN(Cc1nc2cccc(N3CC[C@@H](N(C)C)C3)n2c1CO)[C@H]1CCCc2cccnc21 [Example 68, [5-[(3R)-3-(Dimethylamino)-1-pyrrolidinyl]-2-({propyl[(8S)-5,6,7,8-tetrahydro-8-quinolinyl]amino}methyl)imidazo[1,2-a]pyridin-3-yl]methanol]
> 7.00 | CC(C)N(Cc1nc2cccc(N3CC[C@@H](N(C)C)C3)n2c1CO)[C@H]1CCCc2cccnc21 [Example 70, [5-[(3R)-3-(Dimethylamino)-1-pyrrolidinyl]-2-({(1-methylethyl)[(8S)-5,6,7,8-tetrahydro-8-quinolinyl]amino}methyl)imidazo[1,2-a]pyridin-3-yl]methanol]
> 7.00 | CN(C)[C@@H]1CCN(c2cccc3nc(CN(CC4CC4)[C@H]4CCCc5cccnc54)c(CO)n23)C1 [Example 72, {2-({(Cyclopropylmethyl)[(8S)-5,6,7,8-tetrahydro-8-quinolinyl]amino}methyl)-5-[(3R)-3-(dimethylamino)-1-pyrrolidinyl]imidazo[1,2-a]pyridin-3-yl}methanol]
> 7.00 | CN(Cc1nc2cccc(N3CCC(N)CC3)n2c1CO)[C@H]1CCCc2cccnc21 [Example 76, [5-(4-Amino-1-piperidinyl)-2-({methyl[(8S)-5,6,7,8-tetrahydro-8-quinolinyl]amino}methyl)imidazo[1,2-a]pyridin-3-yl]methanol]
> 7.00 | CN(C)CCOc1cccc2nc(CN(C)[C@H]3CCCc4cccnc43)c(CO)n12 [Example 78, [5-{[2-(Dimethylamino)ethyl]oxy}-2-({methyl[(8S)-5,6,7,8-tetrahydro-8-quinolinyl]amino}methyl)imidazo[1,2-a]pyridin-3-yl]methanol]
